Assay results taken from patent publication US4272437A, “Antibacterial agents, and 4-thio azetidinone intermediates” (priority 1979, dated 1981).
Values after ≈ are worked out from the molar mass of the structure shown. Where two headings read alike, the source gives them in different places.

What was measured:
[1] = test system: Str. pneumoniae A-9585; experiment: MIC, tube dilution, Streptococcus pneumoniae A9585; type: cell-based; conditions: Streptococcus pneumoniae, A9585, Str. pneumoniae A9585; overnight 37° C., Nutrient Broth; read-out: Minimum Inhibitory Concentration (M.I.C.)
Text: (§1) Representative compounds of the present invention were subjected to in vitro antibiotic screening against a variety of microorganisms.

[2] = test system: Str. pyogenes A-9604; experiment: MIC, tube dilution, Streptococcus pyogenes A9604; type: cell-based; conditions: Streptococcus pyogenes, A9604, Str. pyogenes A9604; overnight 37° C., Nutrient Broth; read-out: Minimum Inhibitory Concentration (M.I.C.)
Text: as §1

[3] = test system: Staph. aureus A-9537; experiment: MIC, tube dilution, Staphylococcus aureus A9537; type: cell-based; conditions: Staphylococcus aureus, A9537, Staph. aureus A9537; overnight 37° C., Nutrient Broth; read-out: Minimum Inhibitory Concentration (M.I.C.)
Text: as §1

[4] = test system: Staph. aureus A-9537 and 50% serum; experiment: MIC, tube dilution, Staph. aureus A9537 + 50% serum; type: cell-based, Staphylococcus aureus; conditions: Staphylococcus aureus, overnight 37° C., read-out: Minimum Inhibitory Concentration (M.I.C.)
Text: as §1

[5] = test system: Staph. aureus (Pen-Res) A-9606; experiment: MIC, tube dilution, Staphylococcus aureus A9606 (Pen-Res); type: cell-based; conditions: Staphylococcus aureus, overnight 37° C.
Text: as §1

[6] = test system: Staph. aureus (Meth-Res) A-15097; experiment: MIC, tube dilution, Staphylococcus aureus A15097 (Meth-Res); type: cell-based; conditions: Staphylococcus aureus, overnight 37° C.
Text: as §1

[7] = test system: Str. faecalis A-20688; experiment: MIC, tube dilution, Streptococcus faecalis A20688; type: cell-based; conditions: Enterococcus faecalis, A20688, Str. faecalis A20688; overnight 37° C.; read-out: Minimum Inhibitory Concentration (M.I.C.)
Text: as §1

[8] = test system: E. coli A-15119; experiment: MIC, tube dilution, Escherichia coli A15119; type: cell-based; conditions: Escherichia coli, A15119, E. coli A15119; overnight 37° C.; read-out: Minimum Inhibitory Concentration (M.I.C.)
Text: as §1

[9] = test system: E. coli A-20341-1; experiment: MIC, tube dilution, Escherichia coli A20341-1; type: cell-based
Text: as §1

[10] = test system: K. pneumoniae A-15130; experiment: MIC, tube dilution, Klebsiella pneumoniae A15130; type: cell-based; conditions: Klebsiella pneumoniae, A15130, K. pneumoniae A15130; overnight 37° C.; read-out: Minimum Inhibitory Concentration (M.I.C.)
Text: as §1

[11] = test system: Klebsiella species A20468; experiment: MIC, tube dilution, Klebsiella species A20468; type: cell-based; conditions: Klebsiella species (K. pneumoniae) A20468; overnight 37° C.; read-out: Minimum Inhibitory Concentration (M.I.C.)
Text: as §1

[12] = test system: Pr. mirabilis A-9900; experiment: MIC, tube dilution, Proteus mirabilis A9900; type: cell-based; conditions: Proteus mirabilis, A9900, Proteus mirabilis A9900; overnight 37° C.; read-out: Minimum Inhibitory Concentration (M.I.C.)
Text: as §1

[13] = test system: Pr. morganii A-15153; experiment: MIC, tube dilution, Proteus morganii A15153; type: cell-based; conditions: Morganella morganii, A15153, Proteus morganii A15153; overnight 37° C.; read-out: Minimum Inhibitory Concentration (M.I.C.)
Text: as §1

[14] = test system: Ser. marcescens A-20019; experiment: MIC, tube dilution, Serratia marcescens A20019; type: cell-based; conditions: Serratia marcescens, A20019, Serratia marcescens A20019; overnight 37° C.; read-out: Minimum Inhibitory Concentration (M.I.C.)
Text: as §1

[15] = test system: Ent. cloacae A-9659; experiment: MIC, tube dilution, Enterobacter cloacae A9659; type: cell-based; conditions: Enterobacter cloacae, A9659, Enterobacter cloacae A9659; overnight 37° C.; read-out: Minimum Inhibitory Concentration (M.I.C.)
Text: as §1

[16] = test system: Ent. cloacae A-9656; experiment: MIC, tube dilution, Enterobacter cloacae A9656; type: cell-based; conditions: overnight 37° C., read-out: Minimum Inhibitory Concentration (M.I.C.)
Text: as §1

[17] = test system: Ps. aeruginosa A-9843A; experiment: MIC, tube dilution, Pseudomonas aeruginosa A9843A; type: cell-based; conditions: Pseudomonas aeruginosa, A9843A, read-out: Minimum Inhibitory Concentration (M.I.C.), Pseudomonas aeruginosa A9843A; overnight 37° C.
Text: as §1

[18] = test system: Ps. aeruginosa A-21213; experiment: MIC, tube dilution, Pseudomonas aeruginosa A21213; type: cell-based; conditions: overnight 37° C., read-out: Minimum Inhibitory Concentration (M.I.C.)
Text: as §1

[19] = test system: Proteus rettgeri A21203; experiment: MIC, tube dilution, Proteus rettgeri A21203; type: cell-based; conditions: Providencia rettgeri, overnight 37° C., read-out: Minimum Inhibitory Concentration (M.I.C.)
Text: as §1

[20] = test system: Proteus vulgaris A21559; experiment: MIC, tube dilution, Proteus vulgaris A21559; type: cell-based; conditions: Proteus vulgaris
Text: as §1

[21] = Staph. aureus A9606 (Pen-Res), read-out: Minimum Inhibitory Concentration (M.I.C.)
[22] = Staph. aureus A15097 (Meth-Res), read-out: Minimum Inhibitory Concentration (M.I.C.)
[23] = Escherichia coli, A203411, E. coli A20341-1; overnight 37° C.; read-out: Minimum Inhibitory Concentration (M.I.C.)
[24] = Enterobacter cloacae, A9656, Enterobacter cloacae A9656
[25] = Pseudomonas aeruginosa, A21213, Pseudomonas aeruginosa A21213
[26] = A21203, Proteus rettgeri A21203
[27] = A21559, Proteus vulgaris A21559, overnight 37° C., read-out: Minimum Inhibitory Concentration (M.I.C.)

Compound | MIC [1] | MIC [2] | MIC [3] | MIC [4] | MIC [7] | MIC [8] | MIC [10] | MIC [11] | MIC [12] | MIC [13] | MIC [14] | MIC [15] | MIC [17] | MIC [5, 21] | MIC [6, 22] | MIC [9, 23] | MIC [16, 24] | MIC [18, 25] | MIC [19, 26] | MIC [20, 27] | other results
CC1=C(C(=O)O)N2C(=O)[C@H]([C@H](C)O)[C@H]2S1 (relative stereo) [Example 59, (1'S,5R,6S and 1'R,5S,6R) 6-(1'-Hydroxy-1'-ethyl)-2-methyl penem-3-carboxylic acid (isomer C)] | 32 µg/mL (≈ 140 µM) | 125 µg/mL (≈ 545 µM) | > 125 µg/mL | > 63 µg/mL | > 125 µg/mL | > 125 µg/mL | > 125 µg/mL | > 125 µg/mL | > 125 µg/mL | > 125 µg/mL | > 125 µg/mL | > 125 µg/mL | > 125 µg/mL |  |  |  |  |  |  |  | MIC ([5]; read-out: Minimum Inhibitory Concentration (M.I.C.), Staph. aureus A9606 (Pen-Res)): > 125 µg/mL; MIC ([6]; read-out: Minimum Inhibitory Concentration (M.I.C.), Staph. aureus A15097 (Meth-Res)): > 125 µg/mL; MIC ([9]; Escherichia coli, A203411; E. coli A20341-1; overnight 37° C.; read-out: Minimum Inhibitory Concentration (M.I.C.)): > 125 µg/mL; MIC ([16]; Enterobacter cloacae A9656): > 125 µg/mL; MIC ([18]; Pseudomonas aeruginosa A21213): > 125 µg/mL; MIC ([19]; Proteus rettgeri A21203): > 125 µg/mL; MIC ([20]; A21559, read-out: Minimum Inhibitory Concentration (M.I.C.)): > 125 µg/mL
COCOC[C@H](O)[C@H]1C(=O)N2C(C(=O)O)=C(C)S[C@H]12 (relative stereo) [Example 105, (1'R,5R,6S and 1'S,5S,6R) 6-(1'-Hydroxy-2'-methoxymethoxy-2'-ethyl)-2-methylpenem-3-carboxylic acid (Isomer C)] | 4 µg/mL (≈ 13.8 µM) | 4 µg/mL (≈ 13.8 µM) | > 8 µg/mL | > 32 µg/mL | > 63 µg/mL | 63 µg/mL (≈ 218 µM) | 63 µg/mL (≈ 218 µM) | > 63 µg/mL | > 63 µg/mL | > 63 µg/mL | > 63 µg/mL | 63 µg/mL (≈ 218 µM) | 63 µg/mL (≈ 218 µM) | 63 µg/mL (≈ 218 µM) | > 63 µg/mL | 63 µg/mL (≈ 218 µM) | 63 µg/mL (≈ 218 µM) | 63 µg/mL (≈ 218 µM) | 32 µg/mL (≈ 111 µM) | > 63 µg/mL | 
N=C(NCC1=C(C(=O)O)N2C(=O)CC2S1)c1ccccc1 (stereo not drawn) [Example 108, 2-Phenylimidoylaminomethylpenem-3-carboxylic Acid] | 0.25 µg/mL (≈ 0.824 µM) | 0.25 µg/mL (≈ 0.824 µM) | 0.25 µg/mL (≈ 0.824 µM) | 16 µg/mL | 125 µg/mL (≈ 412 µM) | 63 µg/mL (≈ 208 µM) | 125 µg/mL (≈ 412 µM) | > 125 µg/mL | 63 µg/mL (≈ 208 µM) | 63 µg/mL (≈ 208 µM) | 125 µg/mL (≈ 412 µM) | 125 µg/mL (≈ 412 µM) | 63 µg/mL (≈ 208 µM) | 16 µg/mL (≈ 52.7 µM) | > 125 µg/mL | > 125 µg/mL | 125 µg/mL (≈ 412 µM) | 125 µg/mL (≈ 412 µM) | 63 µg/mL (≈ 208 µM) | 125 µg/mL (≈ 412 µM) | 
